Earlier results, collected in PMC7395068, “The evolution of strategies to minimise the risk of human drug-induced liver injury (DILI) in drug discovery and development” (Archives of Toxicology, 2020).
Where two headings read alike, the source gives them in different places.

How the values were obtained:
HepG2 = tested on: HepG2; set-up: method as in Albrecht 2019; details: In vitro Assay; ref Albrecht 2019; cited from earlier work
[1] = cited from earlier work
[2] = tested on: primary human hepatocytes, NIH3T3 fibroblasts, BSEP, CYP3A4; details: cited from earlier work
human hepatocytes = details: In vitro Assay; ref Xu 2008; cited from earlier work
PHH [3] = details: In vitro Assay; ref Albrecht 2019; cited from earlier work
[4] = tested on: THLE-Null and THLE-3A4 cells; details: In vitro Assay; ref Gustafsson 2014; cited from earlier work
rBsep = details: In vitro Assay; ref Dawson 2012; cited from earlier work
HepG2 cells = details: cited from earlier work
[5] = tested on: THLE or HepG2 cells, isolated mitochondria, BSEP; details: cited from earlier work
PHH [6] = details: cited from earlier work
hLiMTs = details: cited from earlier work
PHH spheroids = details: cited from earlier work; for hLiMTs ATP <20 x Cmax: In vitro Assay, ref Vorrink 2018
[7] = tested on: HepG2 C3A spheroid, BSEP, Glu/Gal in HepG2 cells, bioactivation; details: cited from earlier work
[8] = cited from earlier work; remark: listed apart in the source
[9] = tested on: isolated mouse liver mitochondria; details: In vitro Assay; ref Porceddu 2012; cited from earlier work
[10] = In vitro Assay, ref Schadt 2015

C[C@H]1COc2c(N3CCN(C)CC3)c(F)cc3c(=O)c(C(=O)O)cn1c23 [levofloxacin]
Cytotoxicity HepG2 48 hrs (HepG2): +VE | DILI +VE (5-8), DILI -VE (-4) ([1]; in vivo): +VE | DILI severity category ([1]; in vivo): vMost-DILI-Concern | Cellular toxicity (3T3 cells) [2]: -VE | Combined Assay [2]: -VE | GSH adduct HML [2]: -VE | Hepatocyte cellular toxicity [2]: -VE | MitoTox 3T3 [2]: -VE | TDI CYP3A4 [2]: -VE | hBSEP inhibition [2]: -VE | Structural based (HCI) (human hepatocytes): -VE | Cytotoxicity PHH 48 hrs (PHH [3]): +VE | THLE-Null [4]: -VE | Inhibition of rBsep cutoff<1& cmax u>.2 (rBsep): -VE | Inhibition of rBsep cutoff<3 (rBsep): -VE

CS(=O)(=O)Nc1ccc([N+](=O)[O-])cc1Oc1ccccc1 [nimesulide]
Cytotoxicity HepG2 48 hrs (HepG2): +VE | DILI +VE (5-8), DILI -VE (-4) ([1]; in vivo): +VE | DILI severity category ([1]; in vivo): vMost-DILI-Concern | Structural based (HCI) (HepG2 cells): +VE | Ro2 Hybrid HRM Score [5]: +VE | PHH ATP <100uM (PHH [6]): +VE (key: +VE: IC50 threshold of 100 µM) | hLiMTs ATP <100uM (hLiMTs): +VE (key: +VE: IC50 threshold of 100 µM) | hLiMTs ATP <20 x Cmax (PHH spheroids): +VE (IC20 < 20 × Cmax.tot cut-off) | Bayesian Machine Learning [7]: +VE | In vivo DILI ([8]; in vivo): +VE | Cytotoxicity PHH 48 hrs (PHH [3]): +VE | in vitro data EC2<=1x Cmax [9]: +VE

CC(CN1c2ccccc2Sc2ccccc21)N(C)C (stereo not shown) [promethazine]
Cytotoxicity HepG2 48 hrs (HepG2): -VE | DILI +VE (5-8), DILI -VE (-4) ([1]; ref Chen 2016): +VE | DILI severity category ([1]; ref Chen 2016): vLess-DILI-Concern | Cellular toxicity (3T3 cells) [2, 10]: +VE | Combined Assay [2, 10]: -VE | GSH adduct HML [2, 10]: +VE | Hepatocyte cellular toxicity [2, 10]: -VE | MitoTox 3T3 [2, 10]: -VE | TDI CYP3A4 [2, 10]: -VE | hBSEP inhibition [2, 10]: -VE | Structural based (HCI) (human hepatocytes): -VE | hLiMTs ATP <20 x Cmax (PHH spheroids): -VE | In vivo DILI ([8]; ref Albrecht 2019): -VE | In vivo DILI ([8]; ref Schadt 2015): -VE | In vivo DILI ([8]; ref Vorrink 2018): -VE | In vivo DILI ([8]; ref Xu 2008): -VE | Cytotoxicity PHH 48 hrs (PHH [3]): -VE

CC(C)NCC(O)COc1cccc2ccccc12 (stereo not shown) [propranolol, reference compound]
Cytotoxicity HepG2 48 hrs (HepG2): -VE | Ro2 Hybrid HRM Score ([5]; In vitro Assay, ref Aleo 2019): -VE | Partition Hybrid HRM Score [5]: +VE | response of PHH spheroids at 5 × Cmax.tot (PHH spheroids; ATP, 14 days, not positive at higher concentrations, ref Vorrink et al. 2018): positive | hLiMTs ATP <20 x Cmax (PHH spheroids): -VE | Cytotoxicity PHH 48 hrs (PHH [3]): -VE | Inhibition of rBsep cutoff<1& cmax u>.2 (rBsep): -VE | Inhibition of rBsep cutoff<3 (rBsep): -VE
